Numbers after ± are expanded uncertainties.
Assay: activity coefficient (dimensionless); of the first substance listed, at infinite dilution; xn = mol fraction of the nth substance listed
Settings: 101.33 kPa, Liquid, Chromatography, x1 = 0

Row | SMILES | activity coefficient (323.15 K) | activity coefficient (333.15 K) | activity coefficient (343.15 K)
1 | CCC[N+](=O)[O-] [1-nitropropane] + C[n+]1ccn(CCCCS(=O)(=O)O)c1.O=S(=O)([N-]S(=O)(=O)C(F)(F)F)C(F)(F)F | 1.17 ± 0.07 | 1.17 ± 0.07 | 1.18 ± 0.08
2 | CCCCCCCCCCCC [dodecane] + C[n+]1ccn(CCCCS(=O)(=O)O)c1.O=S(=O)([O-])O | 1310 ± 90 | 1200 ± 82 | 1140 ± 79
3 | Cc1ccc(C)cc1 [1,4-dimethylbenzene] + C[n+]1ccn(CCCCS(=O)(=O)O)c1.O=S(=O)([O-])O | 56.6 ± 3.9 | 54.4 ± 3.7 | 50.6 ± 3.5
4 | CC(C)CO [2-methyl-1-propanol] + C[n+]1ccn(CCCCS(=O)(=O)O)c1.O=S(=O)([N-]S(=O)(=O)C(F)(F)F)C(F)(F)F | – | 0.22 ± 0.03 | 0.26 ± 0.03
5 | CCC(C)=O [butanone] + C[n+]1ccn(CCCCS(=O)(=O)O)c1.O=S(=O)([N-]S(=O)(=O)C(F)(F)F)C(F)(F)F | 0.24 ± 0.03 | 0.27 ± 0.03 | 0.3 ± 0.1
6 | CCCCO [butan-1-ol] + C[n+]1ccn(CCCCS(=O)(=O)O)c1.O=S(=O)([N-]S(=O)(=O)C(F)(F)F)C(F)(F)F | – | 0.19 ± 0.03 | 0.23 ± 0.03
7 | CCO [ethanol] + C[n+]1ccn(CCCCS(=O)(=O)O)c1.O=S(=O)([N-]S(=O)(=O)C(F)(F)F)C(F)(F)F | – | 0.08 ± 0.03 | 0.1
8 | CCCCCCCCCCCCC [tridecane] + C[n+]1ccn(CCCCS(=O)(=O)O)c1.O=S(=O)([O-])O | 1540 ± 110 | 1410 ± 97 | 1350 ± 93
9 | CCC(=O)CC [pentan-3-one] + C[n+]1ccn(CCCCS(=O)(=O)O)c1.O=S(=O)([N-]S(=O)(=O)C(F)(F)F)C(F)(F)F | 0.54 ± 0.04 | 0.64 ± 0.04 | 0.77 ± 0.05
10 | ClCCl [dichloromethane] + C[n+]1ccn(CCCCS(=O)(=O)O)c1.O=S(=O)([N-]S(=O)(=O)C(F)(F)F)C(F)(F)F | 1.08 ± 0.07 | 1.18 ± 0.08 | 1.28 ± 0.08
11 | ClC(Cl)Cl [trichloromethane] + C[n+]1ccn(CCCCS(=O)(=O)O)c1.O=S(=O)([N-]S(=O)(=O)C(F)(F)F)C(F)(F)F | 1.81 ± 0.12 | 1.83 ± 0.12 | 1.86 ± 0.13
12 | Cc1ccccc1 [toluene] + C[n+]1ccn(CCCCS(=O)(=O)O)c1.O=S(=O)([O-])O | 28.3 ± 1.9 | 26.6 ± 1.8 | 24.9 ± 1.7
13 | CCC(C)=O [butanone] + C[n+]1ccn(CCCCS(=O)(=O)O)c1.O=S(=O)([O-])O | 5.49 ± 0.37 | 5.17 ± 0.35 | 4.47 ± 0.3
14 | ClC(Cl)Cl [trichloromethane] + C[n+]1ccn(CCCCS(=O)(=O)O)c1.O=S(=O)([O-])C(F)(F)F | 2.12 ± 0.14 | 2.18 ± 0.15 | 2.19 ± 0.15
15 | CC(C)OC(C)C [diisopropyl ether] + C[n+]1ccn(CCCCS(=O)(=O)O)c1.O=S(=O)([O-])C(F)(F)F | 11.7 ± 0.8 | 13.3 ± 0.91 | 14.9 ± 1
16 | CCCCCCCCCC [decane] + C[n+]1ccn(CCCCS(=O)(=O)O)c1.O=S(=O)([N-]S(=O)(=O)C(F)(F)F)C(F)(F)F | 371 ± 26 | 336 ± 23 | 281 ± 19
17 | c1ccsc1 [thiophene] + C[n+]1ccn(CCCCS(=O)(=O)O)c1.O=S(=O)([O-])C(F)(F)F | 2.24 ± 0.15 | 2.23 ± 0.15 | 2.22 ± 0.15
18 | CCCC(C)=O [pentan-2-one] + C[n+]1ccn(CCCCS(=O)(=O)O)c1.O=S(=O)([O-])O | 13.4 ± 0.92 | 13.2 ± 0.9 | 12.5 ± 0.85
19 | CCCCCCCCCCCCC [tridecane] + C[n+]1ccn(CCCCS(=O)(=O)O)c1.O=S(=O)([N-]S(=O)(=O)C(F)(F)F)C(F)(F)F | 1080 ± 75 | 911 ± 63 | 832 ± 57
20 | Cc1ccc(C)cc1 [1,4-dimethylbenzene] + C[n+]1ccn(CCCCS(=O)(=O)O)c1.O=S(=O)([O-])C(F)(F)F | 10.1 ± 0.69 | 9.86 ± 0.67 | 9.52 ± 0.65
21 | CCC(=O)CC [pentan-3-one] + C[n+]1ccn(CCCCS(=O)(=O)O)c1.O=S(=O)([O-])O | 14.2 ± 0.97 | 13.8 ± 0.94 | 13.2 ± 0.9
22 | c1ccsc1 [thiophene] + C[n+]1ccn(CCCCS(=O)(=O)O)c1.O=S(=O)([O-])O | 6.56 ± 0.45 | 6.43 ± 0.44 | 6.13 ± 0.42
23 | Cc1ccccc1 [toluene] + C[n+]1ccn(CCCCS(=O)(=O)O)c1.O=S(=O)([O-])C(F)(F)F | 5.74 ± 0.39 | 5.54 ± 0.38 | 5.54 ± 0.38
24 | CCCCCCCCCCCCCC [tetradecane] + C[n+]1ccn(CCCCS(=O)(=O)O)c1.O=S(=O)([N-]S(=O)(=O)C(F)(F)F)C(F)(F)F | 1180 ± 81 | 1060 ± 73 | 941 ± 65
